{
  "source": "patent US20110251158A1",
  "about": "“FULLERENE THERAPIES FOR INFLAMMATION AND INHIBITION OF BUILD-UP OF ARTERIAL PLAQUE” (Luna Innovations Incorporated, priority 2008, published 2011)",
  "key": {"[1]": {"tested_on": "Peripheral blood basophils (PBB)", "assay": "Anti-IgE-induced IL-13 secretion from PBB (ELISA)", "assay_type": "cell-based, human", "settings": "for Mean % Inhibition of IL-13 Secretion: 15 ng/ml anti-IgE", "experimental": "PBB were obtained from two sources: donors recruited under an IRB-approved protocol after informed consent or from leukopheresis packs obtained from the Johns Hopkins Hemapheresis Center. PBB were purified to ≧99% purity as described in Vonakis, B. M., Gibbons S Jr, Sora, R., Langdon, J. M., and MacDonald, S. M. J. Allergy Clin. Immunol. 108, 822-831 (2001), and Miura, K., Saini, S. S., Gauvreau, G., and MacGlashan, D. W., Jr. J. Immunol. 167, 2282-2291 (2001). Purified PBB were incubated overnight (20 hours) with a fullerene derivative (5 μg/ml) or vehicle control and a minimal (non-stimulatory) concentration of IL-3 (2 pg/ml) to prevent apoptosis. The next day, cells were washed and aliquoted for the histamine release assay by treatment with 0.1 mg/ml of goat polyclonal anti-IgE, buffer alone (spontaneous release) or perchloric acid (total histamine determination). Histamine was quantified in cell free supernatants using automated fluorimetry in duplicate. In a second set of experiments the two fullerene derivatives (at 5 μg/ml) were incubated with PBB for 20 hours, washed cells stimulated with 15 ng/ml anti-IgE for 18 hours in duplicate and supernatants collected for quantification of IL-13 by in-house ELISA. The optimal doses of anti-IgE are chosen for activation of PBB."}, "[2]": {"tested_on": "inflammatory arthritis", "assay": "Murine arthritis model (arthritogenic serum): clinical indices and ankle swelling", "assay_type": "in vivo, mice (C57/B6)", "experimental": "To induce disease, C57/B6 (5 mice/cage/group) mice were injected intraperitoneally (IP) on Days 1 and 3 with 100 μl of arthritogenic serum. […] As a control 100 μl of PBS without serum was injected in the control group. Swelling in each ankle was measured along with the clinical indices as described (Lee, D M, Science 2002, Sep. 6; 297(5587):1689-92). Measurements were performed every second day by personnel blinded to the identity of the injections. After 14 days mice were sacrificed and ankle sections removed for histology and serum obtained for cytokine analysis. Error bars, SEM. In FIG. 5A, clinical index was given as the sum of observed inflammation (per paw): 0=no evidence of inflammation; 1=subtle inflammation (metatarsal phalanges joints, individual phalanx, or localized edema); 2=easily identified swelling but localized to either dorsal or ventral surface of paw; and 3=swelling on all aspects of paw. Maximum score=12. In FIG. 5B, the sum of the measurement in ankle swelling at each day was given. The * indicates significant differences observed on that day in fullerene compared to non-fullerene-treated mice. Prior to injection, 5 was incorporated into liposomes with egg phosphatidylcholine (PC) at a ratio of 1:2. 7 was dissolved in PBS buffer at pH 7.4. […]"}, "[3]": {"tested_on": "mice", "assay": "Liver toxicity: serum ALT and AST activity after FD injection", "assay_type": "in vivo", "settings": "tail vein injection", "experimental": "To examine potential toxicity, alanine aminotranferease (ALT) and aspartate aminotransferase (AST) were measured in serum. These enzymes leak out into the general circulation when the liver is injured. Mice were treated with or without 1000 μg/100 μl (50 times more than used for the in vivo study) of TGA or Inos by tail vein injection and i.p. After two and 14 days mice were sacrificed and blood, obtained by cardiac puncture. ALT and AST activity were measured as described in Booth, G., Newham, P., Barlow, R., Raines, S., Zheng, B., and Han, S. Autoimmunity 41, 512-521 (2008). Data is presented as an average of 4 (Untreated) or 4 (Treated) mice±Standard Deviation."}, "[4]": {"tested_on": "intracellular calcium stores release", "assay": "FcεRI-induced intracellular calcium (Fura-2) in MC", "assay_type": "cell-based, human", "settings": "10 μg/mL overnight; anti-FcεRI 1 μg/mL", "experimental": "MC were pre-treated with or without fullerene derivatives as above, washed with Tyrodes buffer supplemented with BSA, and incubated with Fura-2 AM (2 μM) for 30 minutes at 37° C. Cells were washed, stimulated with anti-FcεRI, and calcium flux measured in real time on a Perkin Elmer LS55 Spectrofluorometer. For ROS production, cells were exposed to fullerene derivatives as above. After washing, cells were re-suspended in X-Vivo medium containing 5 μM dichlorodihydrofluorescein (DCF) at 37° C. for 30 minutes, washed, and activation-induced changes in mean fluorescence was measured with excitation at 502 nm and emission at 523 nm for 15 minutes (19). The data is presented as fluorescence intensity of the 523 nm emission over time. All experiments were performed in triplicate and degranulation was measured in parallel.\nCells were incubated with or without fullerene derivative (10 μg/mL) overnight. The next day cells were challenged with anti-FcεRI (3B4; 1 μg/mL) and calcium stores release was determined by the 340/380 nm ratio (FIGS. 11A and 11B) and ROS measured by DCF detection at 523 nm (FIGS. 11C and 11D). FIGS. 11A and 11C contain cells incubated with the TGA fullerene derivative, and FIGS. 11B and 11D contain cells incubated with the Inos fullerene derivative (10 μg/mL). […]"}},
  "data": [
    {"substance": "C70-tetraglycolic acid [TGA]", "values": [
      {"measurement": "FD + anti-IgE (mean ± SEM, ng/ml), IL-13", "setting": "[1]; 5 μg/ml FD, 20 hours, 15 ng/ml anti-IgE 18 hours", "value": "79.3 ± 20.9", "unit": "ng/mL"},
      {"measurement": "Mean % Inhibition of IL-13 Secretion", "setting": "[1]; 5 μg/ml FD, listed as C70-TGA", "value": 52.4, "unit": "%"},
      {"measurement": "Mean % Inhibition of IL-13 Secretion", "setting": "[1]; 5 μg/ml FD, listed as C70-tetraglucolate", "value": "significant inhibition"},
      {"measurement": "IC50 (IL-13-cytokine production)", "setting": "[1]; PBB, maximum inhibition set to 100%", "value": 10.6, "unit": "µg/mL"},
      {"measurement": "maximal inhibition of anti-IgE stimulated IL-13 secretion", "setting": "[1]; detected at 0.5 μg/ml, mean, n=2", "value": 37.4, "unit": "%"},
      {"measurement": "Inflammation", "setting": "[2]; 200 ng/100 μl IP, days 6 to 12, p<0.03", "value": "significantly inhibited"},
      {"measurement": "Inflammation", "setting": "[2]; 2000 ng/100 μl IP, days 10 to 14, p<0.02", "value": "significantly inhibited"},
      {"measurement": "Alanine aminotransferase (ALT) Activity", "setting": "[3]; Day 2", "value": 29.2},
      {"measurement": "Aspartate aminotransferase (AST) Activity", "setting": "[3]; Day 2", "value": 8.5},
      {"measurement": "Alanine aminotransferase (ALT) Activity", "setting": "[3]; Day 14", "value": 36.7},
      {"measurement": "Aspartate aminotransferase (AST) Activity", "setting": "[3]; Day 14", "value": 29.8},
      {"measurement": "FcεRI-induced intracellular calcium stores release", "setting": "[4]", "value": "inhibited"}
    ]}
  ]
}
